In patent publication US12054471B2, “Thiocycloheptyne derivatives and their use” (Cristal Delivery B.V., priority 2018, dated 2024):

How the values were obtained:
[1] = Storage stability as a powder, checked by 1H-NMR and LC/MS; type: physicochemical; conditions: stored as a powder at both light and dark locations under atmospheric pressure; 1H-NMR and LC/MS (SC_BASE)
Source text: TMTHSI was proven to be stable during storage.

[2] = Reaction kinetics of model click reaction with benzylazide, measured by NMR (CDCl3); type: physicochemical
Procedure: The alkyne (TMTSHI or BCN-OH) was reacted with 1.3 eq benzylazide and reaction kinetics were measured using NMR (CDCl3). Conversion of TMTHSI with benzyl azide reached 79% after 225 seconds, the reaction with BCN-OH took about 40-fold longer (9312 seconds). The reaction conversion (%) is calculated based on triazole signals, taking the plateau of triazole signal at the end of reaction as 100% level=when all TMTHSI or BCN-OH fully reacted with benzylazide. The results of the measurements are included in FIG. 17A.

[3] = Reaction kinetics with benzylazide monitored by QTOF-ESI mass spectrometry to determine rate constant kt; type: physicochemical; conditions: 1.0 eq benzylazide, ACN/water/acetic acid (3:1:0.01%), MS
Procedure: The kt value for the conversion of benzylazide with BCN-OH and TMTHSI was investigated by monitoring the reactions via mass spectrometry. In this study, QTOF mass spectrometry with an ESI source coupled to it, was utilized as a method of measurements. In detail, the alkyne (TMTSHI or BCN-OH in ACN/water/acetic acid (3:1:0.01%) was reacted with 1.0 eq benzylazide and reaction kinetics were measured using MS. The results of the measurements are included in FIG. 55. The measured kt value for TMTHSI in the reaction with benzylazide is 0.83 M^−1S^−1, which is approximately 7 times faster than BCN-OH (0.12 M^−1S^−1).

[4] = Dommerholt et al.; cited from earlier work

SMILES | compound still in tact after storage [1] | time to reach 79% conversion with benzyl azide ([2]; 1.3 eq benzylazide, CDCl3, NMR) | kt value in the reaction with benzylazide [3] | further results
CC1(C)C#CC(C)(C)CS(=N)(=O)C1 [Compound 3, 1-imino-3,3,6,6-tetramethyl-4,5-didehydro-2,3,6,7-tetrahydro-1H-1λ^6-thiepine 1-oxide] | ≥ 10 months | 225 s | 0.83 M^−1S^−1 | Conversion with benzyl azide ([2]; after 225 seconds, 1.3 eq benzylazide, CDCl3, NMR, based on triazole signals): 79%; comparison of reaction kinetics with BCN-OH (FIG. 17A) ([2]; reaction with benzylazide, NMR): significantly faster than BCN-OH; rate relative to BCN-OH (times faster) [3]: approximately 7 times
CC1(C)C#CC(C)(C)CS(=O)(=NC(=O)ON2C(=O)CCC2=O)C1 [Compound 12, 2,5-dioxopyrrolidin-1-yl (3,3,6,6-tetramethyl-1-oxido-4,5-didehydro-2,3,6,7-tetrahydro-1λ^6-thiepan-1-ylidene)carbamate] | ≥ 4 months |  |  | 
OCC1[C@H]2CCC#CCC[C@@H]12 (some centres unmarked) [BCN-OH, reference compound] |  | 9312 s | 0.12 M^−1S^−1 | reaction time relative to TMTHSI (fold longer) ([2]; 1.3 eq benzylazide, CDCl3, NMR): about 40 fold
CC1(C)C#CC(C)(C)CSC1 [TMTH, 3,3,6,6-tetramethylthiacycloheptyne] |  |  |  | stability of TMTH [4]: poor stability
